Chromatographic logP and pest or weed control data for 42 compounds are collected here from patent US10051861B2, “N-arylamidine-substituted trifluoroethyl sulfide derivatives as acaricides and insecticides” (BAYER CROPSCIENCE AG, priority 2011, dated 2018).

Series [1] can be described thus: logP by HPLC on reversed-phase columns (C 18), EEC Directive 79/831 Annex V.A8. The note with it: reversed-phase C18 HPLC column. Type of series: physicochemical. Here is the method:
Calibration is carried out using unbranched alkan-2-ones (having from 3 to 16 carbon atoms) with known log P values (the log P values are determined by the retention times using linear interpolation between two successive alkanones).

In series [2] the test system is greenhouse red spider mite (Tetranychus urticae). As to the kind of experiment: Tetranychus urticae spray test, OP-resistant (TETRUR), bean leaf disks. The note with it: Tetranychus urticae, foliar, 144 h, read-out: efficacy (spider mites killed). The series is classed as in vivo. Here is the method:
After 6 days, the effect in % is determined.

Series [3] relates to larvae of the mustard beetle (Phaedon cochleariae). In words: Phaedon cochleariae spray test (PHAECO). The note with it: Phaedon cochleariae, 168 h, read-out: effect (beetle larvae killed).
The test system of series [4] is cattle ticks (Boophilus microplus). As to the kind of experiment: Boophilus microplus injection test (BOOPMI Inj). The note with it: Rhipicephalus microplus, 168 h, read-out: efficacy (laying of fertile eggs). The series is classed as in vivo. Here is the method:
Solvent: dimethyl sulfoxide
1 μl of the active compound solution is injected into the abdomen of 5 engorged adult female cattle ticks (Boophilus microplus). The animals are transferred into dishes and kept in a climate-controlled room.
The activity is assessed after 7 days by laying of fertile eggs. Eggs whose fertility is not visible from the outside are stored in a climate-controlled cabinet until the larvae hatch after about 42 days. An efficacy of 100% means that none of the ticks has laid any fertile eggs; 0% means that all eggs are fertile.

[5] abbreviates: pH 2.7, [a] LC-MS, acidic range, pH 2.7, 0.1% aqueous formic acid/acetonitrile, read-out: logP(HCOOH).
Where [6] appears, read: pH 7.8, [b] LC-MS, neutral range, pH 7.8, 0.001 molar aqueous ammonium bicarbonate/acetonitrile, read-out: logP(neutral).
Where [7] appears, read: application rate 500 g/ha, after 6 days.
The mark [8] stands for this setting: application rate 20 μg/animal, injection, after 7 days.

Where two headings read alike, the source gives them in different places.

`Cc1cc(F)c(/N=C(/Nc2ccc(Cl)cc2)C(F)(F)F)cc1SCC(F)(F)F` [Ia-31]: the chromatographic logP in series [1] (setting [5]) is 4.73; in series [1] (setting [6]), 4.67. Besides, the pest or weed control at 500 g/ha in series [2] (setting [7]) and in series [3] was 100% throughout.

Turning to `Cc1cc(F)c(/N=C2\CCCN2C)cc1SCC(F)(F)F` [Ia-39], in series [2] (setting [7]), the pest or weed control at 500 g/ha amounted to 100%. In addition, in series [4] (setting [8]), the pest or weed control at 0.02 mg was 100%.

Turning to `CN/C(=N\c1cc(SCC(F)(F)F)c(C)cc1F)c1cccc(Cl)c1` [Ia-44], the pest or weed control at 500 g/ha in series [2] (setting [7]) turned out to be 100%. In series [4] (setting [8]), the pest or weed control at 0.02 mg stood at 100%.

Consider `Cc1cc(F)c(/N=C(/Nc2ccc(C(F)(F)F)cc2)C(F)(F)F)cc1SCC(F)(F)F` [Ia-45], for which the values for the chromatographic logP in series [1] (setting [5]) and in series [1] (setting [6]) were 4.82 and 4.71, respectively. The pest or weed control at 500 g/ha came to 80% in series [2] (setting [7]) and 100% in series [3].

Regarding `Cc1cc(F)c(/N=C(/c2ccc(Cl)cc2)N(C)C)cc1SCC(F)(F)F` [Ia-50], in series [2] (setting [7]), the pest or weed control at 500 g/ha is 100%. Further, the pest or weed control at 0.02 mg in series [4] (setting [8]) is 100%.

Turning to `Cc1cc(C)c(SCC(F)(F)F)cc1/N=C(\N)c1cccnc1` [Ia-66], in series [2] (setting [7]), the pest or weed control at 500 g/ha was found to be 100%. Besides, the pest or weed control at 0.02 mg in series [4] (setting [8]) is 100%.

Consider `Cc1cc(F)c(/N=C2\CCCN2c2ccccc2)cc1SCC(F)(F)F` [Ia-78, 2-Fluoro-4-methyl-N-[(2E)-1-phenylpyrrolidin-2-ylidene]-5-[(2,2,2-trifluoroethyl)sulfanyl]aniline], for which the pest or weed control at 500 g/ha in series [2] (setting [7]) and in series [3] was 100% in each case.

Regarding `Cc1cc(F)c(/N=C(\N)[C@H]2CC2(C)C)cc1SCC(F)(F)F` [Ia-79], the pest or weed control at 500 g/ha in series [2] (setting [7]) and in series [3] was 100% in each case.

Take `CN/C(=N\c1cc(SCC(F)(F)F)c(C)cc1F)c1ccncc1` [Ia-80]: the pest or weed control at 500 g/ha in series [2] (setting [7]) was 100%. Also, the pest or weed control at 0.02 mg in series [4] (setting [8]) amounted to 100%.

`Cc1cc(F)c(/N=C(\N)C2CC2)cc1SCC(F)(F)F` [Ia-92]: the values for the pest or weed control at 500 g/ha in series [2] (setting [7]) and in series [3] were 90% and 83%, respectively.

Take `Cc1cc(F)c(/N=C(\c2cccc(F)c2)N(C)C)cc1SCC(F)(F)F` [Ia-120]: in series [2] (setting [7]), the pest or weed control at 500 g/ha worked out at 100%. Besides, the pest or weed control at 0.02 mg in series [4] (setting [8]) came out at 100%.

Turning to `N/C(=N/c1cc(SCC(F)(F)F)c(Br)cc1Cl)C(F)(F)F` [Ia-121], the pest or weed control at 500 g/ha in series [2] (setting [7]) and in series [3] was 100% in each case.

With `N/C(=N\c1cc(SCC(F)(F)F)c(Cl)cc1Cl)c1ccncn1` [Ia-130], the results for the pest or weed control at 500 g/ha in series [2] (setting [7]) and in series [3] were 100% and 83%, respectively.

`N/C(=N\c1cc(SCC(F)(F)F)c(Cl)cc1Cl)c1ccccn1` [Ia-134]: the pest or weed control at 500 g/ha in series [2] (setting [7]) is 100%; in series [3], 83%.

In the case of `N/C(=N\c1cc(SCC(F)(F)F)c(Cl)cc1Cl)c1ccc(Cl)nc1` [Ia-135], the pest or weed control at 500 g/ha in series [2] (setting [7]) and in series [3] was 100% each time.

`N/C(=N\c1cc(SCC(F)(F)F)c(Cl)cc1Cl)C1CC1` [Ia-139]: the pest or weed control at 500 g/ha in series [2] (setting [7]) and in series [3] was 100% in each case.

Consider `Cc1cc(F)c(/N=C(\c2ccc(Cl)s2)N(C)C)cc1SCC(F)(F)F` [Ia-149, 5-Chloro-N′-{2-fluoro-4-methyl-5-[(2,2,2-trifluoroethyl)sulfanyl]phenyl}-N,N-dimethylthiophene-2-carboximidamide], for which the chromatographic logP in series [1] (setting [5]) amounted to 2.11; in series [1] (setting [6]), 4.89. The results for the pest or weed control at 500 g/ha in series [2] (setting [7]) and in series [3] were 90% and 100%, respectively.

Regarding `Cc1cc(F)c(/N=C(\c2cccn2C)N(C)C)cc1SCC(F)(F)F` [Ia-162, N′-{2-Fluoro-4-methyl-5-[(2,2,2-trifluoroethyl)sulfanyl]phenyl}-N,N,1-trimethyl-1H-pyrrole-2-carboximidamide], the chromatographic logP in series [1] (setting [5]) was found to be 1.67; in series [1] (setting [6]), 4.11. The pest or weed control at 500 g/ha in series [2] (setting [7]) and in series [3] was 100% in each case.

As to `Cc1cc(F)c(/N=C(/NCc2ccccc2)C(F)(F)F)cc1SCC(F)(F)F` [Ia-171], the values for the pest or weed control at 500 g/ha in series [2] (setting [7]) and in series [3] were 90% and 83%, respectively.

Consider `Cc1cc(F)c(/N=C2\CCCN2c2ccc(C(F)(F)F)cc2)cc1SCC(F)(F)F` [Ia-191], for which the pest or weed control at 500 g/ha in series [2] (setting [7]) and in series [3] was 100% each time.

With `CN(C)/C(CC(F)(F)F)=N\c1cc(SCC(F)(F)F)c(Cl)cc1Cl` [Ia-202], the pest or weed control at 500 g/ha in series [2] (setting [7]) and in series [3] was 100% in each case.

For the compound `N/C(=N/c1ccc(Cl)c(SCC(F)(F)F)c1)C(F)(F)F` [Ia-204, N′-{4-Chloro-3-[(2,2,2-trifluoroethyl)sulfanyl]phenyl}-2,2,2-trifluoroethanimidamide], the chromatographic logP in series [1] (setting [5]) and in series [1] (setting [6]) was 3.1 throughout. Moreover, the values for the pest or weed control at 500 g/ha in series [2] (setting [7]) and in series [3] were 90% and 83%, respectively.

Turning to `CN(C)/C(=N\c1cc(SCC(F)(F)F)c(Cl)cc1Cl)c1ccccc1Cl` [Ia-207], the pest or weed control at 500 g/ha in series [2] (setting [7]) is 100%; in series [3] it was 83%.

On to `N/C(=N\c1cc(SCC(F)(F)F)c(Cl)cc1Cl)C1CCC1` [Ia-209], for which the pest or weed control at 500 g/ha in series [2] (setting [7]) and in series [3] was 100% each time.

Take `N/C(=N\c1cc(SCC(F)(F)F)c(Cl)cc1Cl)C(Cl)(Cl)Cl` [Ia-210]: the results for the pest or weed control at 500 g/ha in series [2] and in series [3] were 100% and 83%, respectively.

For the compound `FC(F)(F)CSc1cc(/N=C(\NC2CC2)c2ccc(Cl)nc2)c(Cl)cc1Cl` [Ia-229], the figures for the pest or weed control at 500 g/ha in series [2] (setting [7]) and in series [3] were 90% and 100%, respectively.

Regarding `Cc1cc(F)c(/N=C(\N)C2(F)CC2)cc1[S+]([O-])CC(F)(F)F` (stereo not shown) [Ib-19, 1-Fluoro-N′-{2-fluoro-4-methyl-5-[(2,2,2-trifluoroethyl)sulfinyl]phenyl}cyclopropanecarboximidamide], in series [2], the pest or weed control at 500 g/ha worked out at 100%. In addition, the pest or weed control at 0.02 mg in series [4] worked out at 100%.

In the case of `CN/C(=N/c1cc([S+]([O-])CC(F)(F)F)c(Br)cc1Br)C(F)(F)F` (stereo not shown) [Ib-24], in series [2] (setting [7]), the pest or weed control at 500 g/ha was 100%. Moreover, the pest or weed control at 0.02 mg in series [4] (setting [8]) amounted to 80%.

In the case of `Cc1cc(Cl)c(/N=C(\N)C2(Cl)CC2)cc1[S+]([O-])CC(F)(F)F` (stereo not shown) [Ib-27], the pest or weed control at 500 g/ha in series [2] (setting [7]) and in series [3] was 100% throughout.

Turning to `Cc1cc(F)c(/N=C2\CCCN2c2ccc(C(F)(F)F)cc2)cc1[S+]([O-])CC(F)(F)F` (stereo not shown) [Ib-30], the pest or weed control at 500 g/ha in series [2] (setting [7]) stood at 100%; in series [3], 83%.

Consider `Cc1cc(Cl)c(/N=C(\N)C(F)(F)C(F)(F)F)cc1[S+]([O-])CC(F)(F)F` (stereo not shown) [Ib-35], for which the pest or weed control at 500 g/ha in series [2] (setting [7]) amounted to 100%. Moreover, the pest or weed control at 0.02 mg in series [4] (setting [8]) came to 100%.

As for `Cc1cc(F)c(/N=C(\NC2CC2)C2CC2)cc1[S+]([O-])CC(F)(F)F` (stereo not shown) [Ib-39], the pest or weed control at 500 g/ha in series [2] (setting [7]) and in series [3] was 100% each time.

As for `Cc1cc(F)c(/N=C(\N)C(F)F)cc1[S+]([O-])CC(F)(F)F` (stereo not shown) [Ib-43], the pest or weed control at 500 g/ha in series [2] (setting [7]) and in series [3] was 100% throughout.

`CN/C(=N\c1cc([S+]([O-])CC(F)(F)F)c(C)cc1Cl)C(F)(F)F` (stereo not shown) [Ib-56]: the pest or weed control at 500 g/ha in series [2] (setting [7]) and in series [3] was 100% throughout.

`N/C(=N/c1cc([S+]([O-])CC(F)(F)F)c(Cl)cc1Br)C(F)(F)F` (stereo not shown) [Ib-57]: the pest or weed control at 500 g/ha in series [2] (setting [7]) and in series [3] was 100% in each case.

As to `CN/C(=N/c1cc([S+]([O-])CC(F)(F)F)c(Br)cc1F)C(F)(F)F` (stereo not shown) [Ib-78], the pest or weed control at 500 g/ha in series [2] (setting [7]) and in series [3] was 100% throughout.

For the compound `[O-][S+](CC(F)(F)F)c1cc(/N=C(\NCC(F)(F)F)C2CC2)c(Cl)cc1Cl` (stereo not shown) [Ib-83], the pest or weed control at 500 g/ha in series [2] (setting [7]) and in series [3] was 100% each time.

For the compound `Cc1cc(F)c(/N=C(/NCc2ccc(C(F)(F)F)cc2)C(F)(F)F)cc1[S+]([O-])CC(F)(F)F` (stereo not shown) [Ib-101], the pest or weed control at 500 g/ha was 90% in series [2] (setting [7]) and 100% in series [3].

Take `CN/C(=N/c1ccc(Cl)c([S+]([O-])CC(F)(F)F)c1)C(F)(F)F` (stereo not shown) [Ib-110]: the pest or weed control at 500 g/ha in series [2] (setting [7]) and in series [3] was 100% in each case.

For `Cc1ccc(/N=C(/N)C(F)(F)F)cc1[S+]([O-])CC(F)(F)F` (stereo not shown) [Ib-111], the results for the pest or weed control at 500 g/ha in series [2] (setting [7]) and in series [3] were 90% and 100%, respectively.

As to `C#CCN/C(=N\c1cc([S+]([O-])CC(F)(F)F)c(C)cc1F)C1CC1` (stereo not shown) [Ib-137], the results for the pest or weed control at 500 g/ha in series [2] (setting [7]) and in series [3] were 100% and 83%, respectively.

Take `Cc1cc(F)c(/N=C(/c2ccc(Cl)cc2)N2CCC(F)(F)CC2)cc1[S+]([O-])CC(F)(F)F` (stereo not shown) [Ib-143]: the values for the pest or weed control at 500 g/ha in series [2] (setting [7]) and in series [3] were 90% and 83%, respectively.
